Test results taken from the supplement of paper PMC11061612.

Legend:
Test in all cases: combination Emax (second highest fraction inhibited in the dose matrix, 72 h); higher = more inhibition; extreme values may be limits of the assay
[1] = system: SW756 (Cervical Carcinoma)
In short: (§1)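 Bliss excess equals the observed combination effect minus the expected value EA + EB − EA·EB, where EA and EB are the effects of each agent alone. Combination Emax is the second-highest inhibition within the matrix. Inhibition was scaled from CellTiter-Glo 2.0 luminescence, with 0 set by vehicle wells and 1 by blank wells, after 72 hours of two-drug dosing of cells plated in 1536-well plates.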

[2] = system: CTV-1 (T-Lymphoblastic Leukemia)
In short: as §1

[3] = system: IGR-1 (Melanoma)
In short: as §1

[4] = system: MFH-ino (Other Solid Carcinomas)
In short: as §1

[5] = system: KATOIII (Gastric Carcinoma)
In short: as §1

[6] = system: NCI-H2595 (Mesothelioma)
In short: as §1

[7] = system: U-266 (Plasma Cell Myeloma)
In short: as §1

[8] = system: 697 (B-Lymphoblastic Leukemia)
In short: as §1

[9] = system: SW780 (Bladder Carcinoma)
In short: as §1

[10] = system: KARPAS-1106P (B-Cell Non-Hodgkin's Lymphoma)
In short: as §1

[11] = system: NCI-H1694 (Small Cell Lung Carcinoma)
In short: as §1

[12] = system: SK-N-FI (Neuroblastoma)
In short: as §1

[13] = system: DB (B-Cell Non-Hodgkin's Lymphoma)
In short: as §1

[14] = system: RH-1 (Ewing's Sarcoma)
In short: as §1

[15] = system: SW1990 (Pancreatic Carcinoma)
In short: as §1

[16] = system: DMS-273 (Small Cell Lung Carcinoma)
In short: as §1

[17] = system: NCI-H1299 (Non-Small Cell Lung Carcinoma)
In short: as §1

[18] = system: DSH1 (Bladder Carcinoma)
In short: as §1

[19] = system: NCI-H1781 (Lung Adenocarcinoma)
In short: as §1

[20] = system: OCI-AML2 (Acute Myeloid Leukemia)
In short: as §1

SMILES | combination Emax [1] | combination Emax [2] | combination Emax [3] | combination Emax [4] | combination Emax [5] | combination Emax [6] | combination Emax [7] | combination Emax [8] | combination Emax [9] | combination Emax [10] | combination Emax [11] | combination Emax [12] | combination Emax [13] | combination Emax [14] | combination Emax [15] | combination Emax [16] | combination Emax [17] | combination Emax [18] | combination Emax [19] | combination Emax [20]
CN(CCO)CC[C@H](CSc1ccccc1)Nc1ccc(S(=O)(=O)NC(=O)c2ccc(N3CCC([C@@H](O)c4ccccc4-c4ccc(Cl)cc4)CC3)cc2)cc1S(=O)(=O)C(F)(F)F [AZD4320] + C[C@@H](Nc1cc(F)cc(F)c1)c1cc(C(=O)N(C)C)cc2c(=O)cc(N3CCOCC3)oc12 [AZD8186] (first compound max 1 µM, 7x7, partner max 3 µM) | 0.373 | 0.719 | 0.901 | 0.397 | 0.135 | 0.271 | 0.481 | 1 | 0.742 | 0.951 | 0.978 | 0.395 | 0.921 | 0.885 | 0.388 | 0.649 | 0.297 | 0.404 | 0.623 | 1
CCc1c2c(nc3ccc(O)cc13)-c1cc3c(c(=O)n1C2)COC(=O)[C@]3(O)CC [SN-38] + CN(C)CCCOc1ccc(-c2ccc3ncc4c(c3c2)n(C2CCOCC2)c(=O)n4C)cn1 [AZD0156] (first compound max 0.3 µM, 7x7, partner max 1 µM) | 0.79 | 1 | 0.497 | 0.812 | 0.16 | 0.176 | 0.482 | 1 | 0.33 | 0.901 | 0.968 | 0.669 | 0.97 | 1 | 0.525 | 0.802 | 0.529 | 0.904 | 0.99 | 1
C[C@@H](c1ccc2nccn2c1)n1nnc2ncc(-c3cnn(C)c3)nc21 [Savolitinib] + CC1(C)CCC(CN2CCN(c3ccc(C(=O)NS(=O)(=O)c4ccc(NCC5CCOCC5)c([N+](=O)[O-])c4)c(Oc4cnc5[nH]ccc5c4)c3)CC2)=C(c2ccc(Cl)cc2)C1 [Venetoclax] (first compound max 1 µM, 7x7, partner max 1 µM) | 0.1 | 0.091 | 0.114 | 0.171 | 0.337 | 0.227 | 0.259 | 1 | 0.11 | 0.2 | 0.102 | 0.192 | 0.741 | 0.0824 | 0.225 | 0.239 | 0.14 | 0.286 | 0.208 | 0.93
COc1nnc2ccc(N3CCC(c4ccc(OCCN5CCN(C)C(=O)[C@H]5C)cc4)CC3)nn12 [AZD5153] + Cc1c2c(nn1C)CSCc1cc(n(C)n1)CSc1cc(c3ccccc3c1)OCCCc1c(C(=O)O)n(C)c3c-2c(Cl)ccc13 [AZD5991] (first compound max 1 µM, 7x7, partner max 1 µM) | 0.367 | 0.939 | 0.752 | 0.489 | 0.324 | 0.602 | 0.899 | 1 | 0.365 | 1 | 0.992 | 0.722 | 1 | 0.937 | 0.109 | 0.994 | 0.798 | 1 | 0.435 | 1
Cn1cnc2c(F)c(Nc3ccc(Br)cc3Cl)c(C(=O)NOCCO)cc21 [Selumetinib] + CCN(CCO)CCCOc1ccc2c(Nc3cc(CC(=O)Nc4cccc(F)c4)[nH]n3)ncnc2c1 [AZD2811] (first compound max 10 µM, 7x7, partner max 1 µM) | 0.294 | 0.291 | 0.393 | 0.273 | 0.429 | 0.169 | 0.594 | 1 | 0.435 | 0.297 | 0.385 | 0.455 | 0.411 | 0.935 | 0.245 | 0.804 | 0.363 | 0.383 | 0.623 | 1
Cc1c2c(nn1C)CSCc1cc(n(C)n1)CSc1cc(c3ccccc3c1)OCCCc1c(C(=O)O)n(C)c3c-2c(Cl)ccc13 [AZD5991] + C[C@@H](Nc1cc(F)cc(F)c1)c1cc(C(=O)N(C)C)cc2c(=O)cc(N3CCOCC3)oc12 [AZD8186] (first compound max 1 µM, 7x7, partner max 3 µM) | 0.217 | 0.143 | 0.28 | 0.234 | 0.175 | 0.336 | 0.894 | 0.978 | 0.228 | 0.997 | 0.953 | 0.565 | 0.974 | 0.827 | 0.21 | 0.956 | 0.386 | 0.582 | 0.584 | 0.946
COc1cccc(OCCCN)c1-c1cc(Nc2cnc(C#N)cn2)n[nH]1 [Prexasertib] + Cc1cc2ncnn2cc1Nc1ncc2c(n1)n(C1CCOCC1)c(=O)n2C [AZD7648] (first compound max 1 µM, 7x7, partner max 10 µM) | 0.489 | 0.966 | 0.508 | 0.464 | 0.526 | 0.159 | 0.713 | 1 | 0.26 | 0.909 | 0.808 | 0.915 | 0.766 | 1 | 0.703 | 0.909 | 0.711 | 0.768 | 0.468 | 1
